Experiments:
[1] = system: skin removed from the back of a hairless mouse; test: Evaluation of skin penetrability, amount of α-tocopherol in the skin; type: in vitro ADME; details: 4 hours at 37° C.; for amount of α-tocopherol in the skin: 0.50 (mass %) in Dulbecco's MEM medium, HPLC, not added: 10
[2] = system: skin removed from the back of a hairless mouse; test: Evaluation of skin penetrability, amount of γ-tocopherol in the skin; type: in vitro ADME; details: 4 hours at 37° C.; for amount of γ-tocopherol in the skin: 0.50 (mass %) in Dulbecco's MEM medium, HPLC, not added: 10
[3] = system: keratinocytes of normal human epidermis; details: final concentration 1 mM, 37° C. for 2 hours; not added: lower than detection limit
Protocol: The cells were harvested and spalled by freeze-thawing method. To this cell spall solution, 1), 2) or 3) was added to have a final concentration of 1 mM. The resulting solution was kept at 37° C. for 2 hours and then the amount of α-tocopherol liberated in the reaction solution was measured.

Row | amount of α-tocopherol in the skin [1] | change of the α-tocopherol amount in the treated skin ([1]; 0.50 in medium) | amount of γ-tocopherol in the skin [2] | change of the γ-tocopherol amount in the treated skin ([2]; 0.50 in medium) | amount of α-tocopherol liberated in the reaction solution [3] | Compound
1 | 24 nmol/g of skin | significant increase | – | – | – | Cc1c(C)c2c(c(C)c1OC(=O)CN)CCC(C)(CCCC(C)CCCC(C)CCCC(C)C)O2.Cl (stereo not shown)
2 | – | – | 24 nmol/g of skin | significant increase | – | Cc1c(OC(=O)CN)cc2c(c1C)OC(C)(CCCC(C)CCCC(C)CCCC(C)C)CC2.Cl (stereo not shown)
3 | 11 nmol/g of skin | – | – | – | 0.5 nmol/ml of cell suspension | CC(=O)Oc1c(C)c(C)c2c(c1C)CCC(C)(CCC[C@H](C)CCC[C@H](C)CCCC(C)C)O2 (stereo partly drawn) [α-Tocopherol acetate, reference compound]
4 | – | – | 11 nmol/g of skin | – | – | CC(=O)Oc1cc2c(c(C)c1C)OC(C)(CCCC(C)CCCC(C)CCCC(C)C)CC2 (stereo not shown) [γ-Tocopherol acetate, reference compound]
